Test results: patent US9820486B2, “Compositions and methods for controlling nematodes” (Monsanto Technology LLC, priority 2009, dated 2017)
Several values for one entry are separate records, joined by “and”; a condition that tells them apart may be missing. Equal entries are not always repeated. Marks after values point to notes of the source that are not given here.

Assays:
Meloidogyne incognita = assay: M. incognita miniaturized greenhouse assay on cucumber seedlings (root galling); format: in vivo; conditions: cucumber roots, average of triplicate gall rating; for 1 ppm gall ratings: scale 0-3; for 8 ppm gall ratings: scale 0=0-5%, 1=6-20%, 2=21-50%, 3=51-100% root mass galled
Protocol: The test compound is dissolved in an acetone solution and added to water. A sprouted cucumber seedling is placed into a vial with dry sand and the water-chemical solution is added immediately. Twenty four hours later Meloidogyne incognita eggs are added to the vials and 10 to 12 days later the roots are evaluated for nematode galling.
Cucumber seeds are sprouted for 3 days in moist paper towels. Acceptable sprouts should be 3 to 4 cm long with several lateral roots just emerging. Stock solutions of chemistry are prepared in a mixture of acetone and Triton X100 (412 mg in 500 mL) to a final concentration of 5 mg/mL. The chemical stock solution is then added to 10 mL deionized water plus 0.015% Triton X100 and mixed thoroughly. This is enough to test each condition in triplicate. Ten mL dry sand is added to each vial. At this time the solubility of the chemistry is visually determined and recorded as either ppt (large precipitates) or cloudy (fine precipitates). Seedlings are planted by tilting the vial and laying the seedling in the correct orientation so that the cotyledons are just above the sand and then tilting back to cover the radicles with sand. 3.3 ml water/chemical mix is added to each vial and the vials placed in racks under fluorescent light banks. The vials are inoculated two days after planting by adding 500 vermiform M. incognita eggs to each vial in 50 uL of deionized or spring water. The vials are then kept under the fluorescent lamps at ambient room temperature and watered as needed with 1 mL deionized water, usually twice during duration of test. Harvest of the cucumber plants is done 10 to 12 days after inoculation by washing sand off the roots. A root gall rating and visual phytotoxicity rating is assigned using the following scales: Gall rating scale (Gall: % root mass galled): 0=0-5%; 1=6-20%; 2=21-50%; and 3=51-100%. The average of the triplicate gall rating is then calculated: green=0.00-0.33 (no galls); yellow=0.67-1.33 (mild galling); orange=1.67-2.33 (moderate galling); red=2.67-3.00 (severe galling). Visual phytotoxicity scale is also assigned (Vis. tox; visual reduction in root mass compared to the control): rs1=mild stunting; rs2=moderate stunting; rs3=severe stunting.

[1] = tested on: soybean cyst nematode (SCN); assay: SCN greenhouse soil assay on soybean plants; format: in vivo, Heterodera glycines; conditions: 0 day treatment, harvested 28 days after egg inoculation, tests a and b
Excerpt: Soybeans seeds are planted in 100% sand in two inch square plastic pots. Chemical treatment is done when the soybeans show the first trifoliate beginning to emerge about 10 to 12 days after planting. At least four hours after chemical application the nematode soybean cyst nematode (SCN) eggs are applied and 28 days after the egg inoculation the test is harvested.
(§1) One milligram of chemistry per four pots is equal to one kilogram per hectare of chemical. A standard test uses four replications. For rates above 2 kg/ha, the desired amount of chemical is weighed into a 30 ml vial (example: 8 kg/ha rate=8 mg chemical in 30 ml vial). The chemical is dissolved in 2 ml of appropriate solvent, generally acetone. For rates below 2 kg/ha, 2 milligrams of chemistry is weighed into the vial and dissolved in 2 ml of the solvent. The appropriate amount of chemical concentrate is then pipetted into a separate 30 ml vial and solvent is added to bring the volume to 2 ml (example 0.5 kg/ha=0.5 ml of concentrate+1.5 ml solvent). Each dissolved concentrate is then brought to a total of 20 milliliters using 0.05% Triton X 100 surfactant solution.
(§2) Pots to be treated are moist but not saturated. To each of four pots, five milliliters of the appropriate chemical solution is pipetted to the media surface making sure to avoid contact with the base of the plant. Immediately following chemical application, using a mist nozzle, the pot surface is wetted sufficiently to saturate the pot watering in the chemistry. The chemical application is done in the morning.
Nematode eggs, either SCN or RKN, are added to distilled water to create a concentration of 1000 vermiform eggs […]. At least four hours after chemical treatment the eggs are applied to the treated pots plus non-treated check plants. A small hole about 1 cm deep is punched into the pot surface. One milliliter of the nematode egg slurry is pipetted into the hole. Immediately afterwards the hole is gently covered. Watering of the test plants is then restricted to only water as needed to prevent wilt for a period of 24 hours. […]

root knot nematode (RKN) = assay: RKN greenhouse soil assay on cucumber plants; format: in vivo, Meloidogyne incognita; conditions: 0 day treatment, rated 14 days after egg inoculation
Excerpt: Cucumber seeds are planted in a sandy soil mixture in two inch square plastic pots. When the cotyledons are fully opened and just as the first leaf begins to emerge, usually 7 days after planting, chemistry for the 7-day treatment is applied. One week later the chemistry for the 0 day treatment is applied. Separate plants are used for each application. The plants are generally in the 1-2 leaf stage now. At least four hours after the chemistry application the pots are inoculated with root knot nematode (RKN) eggs. Plants are rated for galling 14 days after the egg inoculation.
as §1, §2
Nematode eggs, either SCN or RKN, are added to distilled water to create a concentration of 1000 vermiform eggs […]. At least four hours after chemical treatment the eggs are applied to the treated pots plus non-treated check plants. A small hole about 1 cm deep is punched into the pot surface. […]

Structure (SMILES) | 1 ppm gall ratings (Meloidogyne incognita) | percent control (cyst reduction) relative to the control blank treatment, 0 day 0.25 kg/ha rate [1] | 8 ppm gall ratings (Meloidogyne incognita) | percent control (galling reduction) relative to the control blank treatment, 0 day 1 kg/ha rate (root knot nematode (RKN)) [%]
CNC(=O)O/N=C(\SC)C(=O)N(C)C [Oxamyl, reference compound] | 1.33^e | 67%^b | – | –
Clc1ccc(-c2coc(-c3ccco3)n2)cc1 [Name 8, 4-(4-chlorophenyl)-2-(furan-2-yl)oxazole] | – | – | 0.67^d | –
Clc1cccc(Oc2noc(-c3ccco3)n2)c1 [Name 4, 3-(3-chlorophenoxy)-5-(furan-2-yl)-1,2,4-oxadiazole] | – | 67% and 78% | 0^b | 83
Clc1ccc(-c2coc(-c3ccco3)n2)c(Cl)c1 [Name 6, 4-(2,4-dichlorophenyl)-2-(furan-2-yl)oxazole] | – | – | 0.33^c | –
Clc1ccc(Oc2noc(-c3ccco3)n2)cc1 [Name 3, 3-(4-chlorophenoxy)-5-(furan-2-yl)-1,2,4-oxadiazole] | – | 79%^a, 79%^b | 0^b | 89
Clc1cccc(-c2noc(Cc3ccco3)n2)c1 [Name 2, 3-(3-chlorophenyl)-5-(furan-2-ylmethyl)-1,2,4-oxadiazole] | – | – | 1.3^a | –
Clc1ccc(Cc2nsc(-c3ccco3)n2)cc1 [Name 5, 3-(4-chlorobenzyl)-5-(furan-2-yl)-1,2,4-thiadiazole] | – | – | 0.67^b | –
Cc1ccc(-c2coc(-c3ccco3)n2)c(C)c1 [Name 7, 4-(2,4-dimethylphenyl)-2-(furan-2-yl)oxazole] | – | – | 1.33^c | –
Clc1ccc(-c2cnc(Sc3cccs3)o2)cc1 [Name 9, 5-(4-chlorophenyl)-2-(thiophen-2-ylthio)oxazole] | – | – | 1.33^d | –
Clc1ccc(-c2cnc(-n3cccc3)o2)cc1 [Name 10, 5-(4-chlorophenyl)-2-(1H-pyrrol-1-yl)oxazole] | 1.33 | – | – | 100
Clc1ccc(-c2noc(Cc3ccco3)n2)cc1 [Name 1, 3-(4-chlorophenyl)-5-(furan-2-ylmethyl)-1,2,4-oxadiazole] | – | – | 1.3^a | –
